As usually defined, the EC50 is the concentration giving half of the maximal effect. The low end stands for higher potency in that assay, the high end for lower potency in that assay.

This note sets out measurements from US10961215B2, “N-aryl and N-heteroaryl piperidine derivatives as liver X receptor beta agonists, compositions, and their use” (Merck Sharp & Dohme Corp., priority 2016, dated 2021).

Experiment [1] concerns the target T1, GST tagged LXRalpha LBD (ligand binding domain) (Homo sapiens, UniProt Q13133).
T1 construct: purchased Invitrogen pv4655
T1 sequence (Q13133 209-447 limits assumed): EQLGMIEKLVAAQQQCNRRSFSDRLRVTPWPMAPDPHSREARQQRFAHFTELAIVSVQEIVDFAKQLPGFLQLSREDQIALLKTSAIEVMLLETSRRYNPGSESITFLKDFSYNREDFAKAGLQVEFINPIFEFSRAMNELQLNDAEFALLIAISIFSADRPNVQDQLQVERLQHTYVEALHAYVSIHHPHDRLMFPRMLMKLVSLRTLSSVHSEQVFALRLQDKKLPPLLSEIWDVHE
The experiment is described as follows: LanthaScreen TR-FRET Liver X Receptor Coactivator Assay, LXR alpha-LBD (co-activator recruitment; IP and % Emax relative to T0901317). The class given is biochemical. The settings on record: for LXR alpha IP (nM) / EC50: Inflection Point of co-activator recruitment, LXR alpha-LBD, TR-FRET; for Emax: efficacy at max dose in relation to reference T0901317, LXR alpha-LBD, read-out: LXR alpha actiivty at max dose (%). An outline of the steps:
(§1)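 TR-FRET coactivator recruitment; LBD + cpd, then fluorescein coactivator peptide/Tb anti-GST Ab mix; RT incubation; IP and Emax vs T0901317.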
On the technique in general: TR-FRET usually uses a lanthanide donor and a delayed reading to cut background.

The target in experiment [2] is T2, GST tagged LXRbeta LBD (ligand binding domain) (Homo sapiens, UniProt P55055).
T2 construct: purchased Invitrogen pv4658.pps
T2 sequence (P55055 222-460 limits assumed): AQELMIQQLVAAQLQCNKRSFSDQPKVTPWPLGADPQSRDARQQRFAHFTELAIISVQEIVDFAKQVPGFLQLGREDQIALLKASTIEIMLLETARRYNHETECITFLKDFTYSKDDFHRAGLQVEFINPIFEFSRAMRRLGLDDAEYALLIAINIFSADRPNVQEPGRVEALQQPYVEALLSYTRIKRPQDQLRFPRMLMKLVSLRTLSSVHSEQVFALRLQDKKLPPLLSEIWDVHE
The experiment is described as follows: LanthaScreen TR-FRET Liver X Receptor Coactivator Assay, LXR beta-LBD (co-activator recruitment; IP and % Emax relative to T0901317). The class given is biochemical. The following applies: for EC50: Inflection Point of co-activator recruitment, LXR beta-LBD, TR-FRET; for Emax: efficacy at max dose in relation to reference T0901317, LXR beta-LBD, read-out: LXR beta actiivty at max dose (%). The gist of the method:
as §1

As to `CC(C)N(C)C(=O)c1ccc(N2CCC(CCCN(C)C(=O)[C@](O)(c3ccccc3)C(F)(F)F)CC2)cc1Cl` [Example 4-10, (R)-2-chloro-N-isopropyl-N-methyl-4-(4-(3-(3,3,3-trifluoro-2-hydroxy-N-methyl-2-phenylpropanamido)propyl)piperidin-1-yl)benzamide], in experiment [1], the “LXR alpha IP (nM)” value is recorded as “No IP” and the Emax came to 10%. Moreover, in experiment [2], a half-maximal effect (EC50) was put at 162 nM and the Emax is 67%.

`CN(C)C(=O)c1ccc(N2CCC(CCCCN(C)C(=O)C(O)(c3ccccc3)C(F)(F)F)CC2)cc1Cl` (stereo not shown) [Example 4-11, 2-chloro-N,N-dimethyl-4-(4-(4-(3,3,3-trifluoro-2-hydroxy-N-methyl-2-phenylpropanamido)butyl)piperidin-1-yl)benzamide]: in experiment [1], the “LXR alpha IP (nM)” value was “No IP” and the Emax was 0%. Moreover, in experiment [2], the response was half-maximal at 120 nM (EC50) and the Emax was found to be 40%.

On to `CN(C)C(=O)c1ccc(N2CCC(CCCNC(=O)C(O)(c3ccccc3)C(F)(F)F)CC2)cc1Cl` (stereo not shown) [Example 5-1, 2-chloro-N,N-dimethyl-4-(4-(3-(3,3,3-trifluoro-2-hydroxy-2-phenylpropanamido)propyl)piperidin-1-yl)benzamide], for which, in experiment [1], the EC50 was determined as 3510 nM and the Emax was determined as 14%. Also, in experiment [2], the EC50 is 610 nM and the Emax amounted to 95%.

For the compound `CC(C)C(O)(C(=O)NCCCC1CCN(c2ccc(C(=O)N(C)C)c(Cl)c2)CC1)C(F)(F)F` (stereo not shown) [Example 5-2, 2-chloro-4-(4-(3-(2-hydroxy-3-methyl-2-(trifluoromethyl)butanamido)propyl)piperidin-1-yl)-N,N-dimethyl-benzamide], in experiment [1], the “LXR alpha IP (nM)” value is “No IP” and the Emax turned out to be 11%. Besides, in experiment [2], the EC50 amounted to 686 nM and the Emax amounted to 80%.

Consider `CN(C)C(=O)c1ccc(N2CCC(CCCNC(=O)C(O)(c3ccccc3)C(F)(F)C(F)(F)F)CC2)cc1Cl` (stereo not shown) [Example 5-3, 2-chloro-N,N-dimethyl-4-(4-(3-(3,3,4,4,4-pentafluoro-2-hydroxy-2-phenyl-butanamido)propyl)piperidin-1-yl)benzamide], for which, in experiment [1], the response was half-maximal at 1670 nM (EC50) and the Emax turned out to be 27%. Also, in experiment [2], the half-maximal effective concentration (EC50) was 380 nM and the Emax is 118%.

As to `CN(C)C(=O)c1ccc(N2CCC(CCCNC(=O)C(C)(C)c3ccccc3)CC2)cc1Cl` [Example 5-4, 2-chloro-N,N-dimethyl-4-(4-(3-(2-methyl-2-phenylpropanamido)propyl)piperidin-1-yl)benzamide], in experiment [1], the “LXR alpha IP (nM)” value was “No IP” and the Emax amounted to 16%. Besides, in experiment [2], the concentration giving a half-maximal response (EC50) turned out to be 561 nM and the Emax was 72%.

Take `CN(C)C(=O)c1ccc(N2CCC(CCCNC(=O)OCc3ccccc3)CC2)nc1Cl` [Example 5-5, benzyl 3-(1-(6-chloro-5-(dimethylcarbamoyl)pyridin-2-yl)piperidin-4-yl)propyl-carbamate]: in experiment [1], the “LXR alpha IP (nM)” value is on record as “No IP” and the Emax came out at 0%. Besides, in experiment [2], the response was half-maximal at 1510 nM (EC50) and the Emax turned out to be 39%.

With `CN(C)C(=O)c1ccc(N2CCC(CCCNC(=O)C(O)(c3ccccc3)C(F)(F)F)CC2)nc1Cl` (stereo not shown) [Example 5-6, 2-chloro-N,N-dimethyl-6-(4-(3-(3,3,3-trifluoro-2-hydroxy-2-phenylpropanamido)propyl)piperidin-1-yl)nicotinamide], in experiment [1], the EC50 is 3700 nM and the Emax worked out at 23%. Further, in experiment [2], the EC50 was determined as 267 nM and the Emax was 105%.

Turning to `CC(C)C(O)(C(=O)NCCCC1CCN(c2ccc(C(=O)N(C)C)c(Cl)n2)CC1)C(F)(F)F` (stereo not shown) [Example 5-7, 2-chloro-6-(4-(3-(2-hydroxy-3-methyl-2-(trifluoromethyl)butanamido)propyl)piperidin-1-yl)-N,N-dimethylnicotinamide], in experiment [1], the “LXR alpha IP (nM)” value is “No IP” and the Emax worked out at 27%. Moreover, in experiment [2], the concentration for a half-maximal effect (EC50) was found to be 636 nM and the Emax was 106%.

Turning to `CN(C)C(=O)c1ccc(N2CCC(CCCNC(=O)[C@](O)(c3ccccc3)C(F)(F)F)CC2)nc1Cl` [Example 5-8, (R)-2-chloro-N,N-dimethyl-6-(4-(3-(3,3,3-trifluoro-2-hydroxy-2-phenylpropanamido)propyl)piperidin-1-yl) nicotinamide], in experiment [1], a half-maximal effect (EC50) was put at 5140 nM and the Emax amounted to 28%. Also, in experiment [2], the EC50 was determined as 105 nM and the Emax was determined as 104%.

Take `CN(C)C(=O)c1ccc(N2CCC(CCCNC(=O)[C@@](O)(c3ccccc3)C(F)(F)F)CC2)nc1Cl` [Example 5-9, (S)-2-chloro-N,N-dimethyl-6-(4-(3-(3,3,3-trifluoro-2-hydroxy-2-phenylpropanamido)propyl)piperidin-1-yl) nicotinamide]: in experiment [1], the concentration giving a half-maximal response (EC50) was 2280 nM and the Emax came to 9%. Also, in experiment [2], it took 165 nM to reach a half-maximal effect (EC50) and the Emax was found to be 101%.

As for `CCOc1cccc([C@@](O)(C(=O)NCCCC2CCN(c3ccc(C(=O)N(C)C)c(Cl)n3)CC2)C(F)(F)F)c1` [Example 5-10, (R)-2-chloro-6-(4-(3-(2-(3-ethoxyphenyl)-3,3,3-trifluoro-2-hydroxy-propanamido)propyl)piperidin-1-yl)-N,N-dimethylnicotinamide], in experiment [1], the “LXR alpha IP (nM)” value was “No IP” and the Emax turned out to be 3%. Moreover, in experiment [2], the EC50 came out at 343 nM and the Emax is 58%.

In the case of `CN(C)C(=O)c1ccc(N2CCC(CCCNC(=O)[C@](O)(c3cccc(OC4CC4)c3)C(F)(F)F)CC2)nc1Cl` [Example 5-11, (R)-2-chloro-6-(4-(3-(2-(3-cyclopropoxyphenyl)-3,3,3-trifluoro-2-hydroxypropanamido)propyl)piperidin-1-yl)-N,N-dimethylnicotinamide], in experiment [1], the “LXR alpha IP (nM)” value is listed as “No IP” and the Emax was -8%. In addition, in experiment [2], the concentration for a half-maximal effect (EC50) is 349 nM and the Emax turned out to be 46%.

Consider `CN(C)C(=O)c1ccc(N2CCC(CCCNC(=O)[C@](O)(c3cccc(OC(F)(F)F)c3)C(F)(F)F)CC2)nc1Cl` [Example 5-12, (R)-2-chloro-N,N-dimethyl-6-(4-(3-(3,3,3-trifluoro-2-hydroxy-2-(3-(trifluoromethoxy)phenyl)propanamido)propyl)piperidin-1-yl)nicotinamide], for which, in experiment [1], it took 13200 nM to reach a half-maximal effect (EC50) and the Emax was determined as 40%. Besides, in experiment [2], the EC50 amounted to 1010 nM and the Emax worked out at 40%.

Consider `CN(C)C(=O)c1ccc(N2CCC(CCCNC(=O)[C@](O)(c3cc(Cl)cc(Cl)c3)C(F)(F)F)CC2)nc1Cl` [Example 5-13, (R)-2-chloro-6-(4-(3-(2-(3,5-dichlorophenyl)-3,3,3-trifluoro-2-hydroxypropanamido)propyl)piperidin-1-yl)-N,N-dimethylnicotinamide], for which, in experiment [1], the “LXR alpha IP (nM)” value is recorded as “No IP” and the Emax is 9%. In experiment [2], the EC50 was 187 nM and the Emax turned out to be 54%.

With `CN(C)C(=O)c1ccc(N2CCC(CCCNC(=O)[C@](O)(c3cccc(C4CC4)c3)C(F)(F)F)CC2)nc1Cl` [Example 5-14, (R)-2-chloro-6-(4-(3-(2-(3-cyclopropylphenyl)-3,3,3-trifluoro-2-hydroxy-propanamido)propyl)piperidin-1-yl)-N,N-dimethylnicotinamide], in experiment [1], the “LXR alpha IP (nM)” value is “No IP” and the Emax was 0%. In addition, in experiment [2], the EC50 was 207 nM and the Emax was found to be 44%.

Take `CN(C)C(=O)c1ccc(N2CCC(CCCNC(=O)C3(c4ccccc4)CCCC3)CC2)nc1Cl` [Example 5-15, 2-chloro-N,N-dimethyl-6-(4-(3-(1-phenylcyclopentane-carboxamido)propyl)piperidin-1-yl)nicotinamide]: in experiment [1], it took 2730 nM to reach a half-maximal effect (EC50) and the Emax stood at 22%. For the same compound, in experiment [2], the concentration giving a half-maximal response (EC50) came to 215 nM and the Emax was determined as 83%.

With `CN(C)C(=O)c1ccc(N2CCC(CCCNC(=O)C3(c4ccccc4)CCC3)CC2)nc1Cl` [Example 5-16, 2-chloro-N,N-dimethyl-6-(4-(3-(1-phenylcyclobutane-carboxamido)propyl)piperidin-1-yl)nicotinamide], in experiment [1], the EC50 was 5220 nM and the Emax turned out to be 26%. In experiment [2], it took 235 nM to reach a half-maximal effect (EC50) and the Emax was 83%.

As to `CCc1cccc([C@@](O)(C(=O)NCCCC2CCN(c3ccc(C(=O)N(C)C)c(Cl)n3)CC2)C(F)(F)F)c1` [Example 5-17, (R)-2-chloro-6-(4-(3-(2-(3-ethylphenyl)-3,3,3-trifluoro-2-hydroxypropanamido)propyl)piperidin-1-yl)-N,N-dimethylnicotinamide], in experiment [1], the “LXR alpha IP (nM)” value is on record as “No IP” and the Emax worked out at 0%. In experiment [2], the concentration for a half-maximal effect (EC50) stood at 401 nM and the Emax worked out at 43%.
